This note sets out measurements from patent publication US9713615B2, “Tetrahydroisoquinolin-2-yl-(quinazolin-4-yl)methanone compounds” (Rexahn Pharmaceuticals, Inc., priority 2013, dated 2017).

One may read the IC50 as the concentration at which inhibition is half-maximal.

In test [1] the test system is MDA-MB-231 (breast). The test is described as follows: SRB growth inhibition assay, MDA-MB-231. Type of test: cell-based, Human. To be noted: Homo sapiens, MDA-MB-231, 96 hours incubation, read-out: Inhibition of cell growth (IC50, μM) MDA-MB-231. The source says: (§1) Cancer cells used in this study to determine the effect of tetrahydroisoquinolin-2-yl-(quinazolin-4-yl)methanone compounds were obtained from the following sources: Human OVCAR-3 (ovary), SK-MEL-28 (melanoma), MDA-MB-231 (breast), HeLa (cervix), PC3 (prostate), HepG2 (liver), A549 (lung), Caki-1 (kidney), HCT116 (colon) and PANC-1 (pancreas) from the American Type Culture Collection (ATCC) (Manassas, Va.); U251 (brain) from Riken (Japan); MKN-45 (stomach) from DSMZ (Germany). All cell lines except MDA-MB-231, HCT116, Caki-1 and PANC-1 were grown in RPMI1640 medium (Invitrogen, Carlsbad, Calif.) supplemented with 10% fetal bovine serum (“FBS”), 1 mM sodium pyruvate, 10 mM HEPES and 100 U/ml penicillin and 100 μg/ml streptomycin (“P/S”). MDA-MB-231, HCT116, Caki-1 and PANC-1 cells were maintained in Dulbecco's modified Eagle's medium (“DMEM”, Invitrogen) supplemented with 10% FBS, P/S, 10 mM HEPES and 2 mM L-glutamine. All cells were incubated at 37° C. under humidified 5% CO2.
(§2) The growth inhibition of the tetrahydroisoquinolin-2-yl-(quinazolin-4-yl)methanone compounds against a variety of human tumor cells was evaluated to study the relative importance of particular substituent groups on the compounds. The tetrahydroisoquinolin-2-yl-(quinazolin-4-yl)methanone compounds, prepared as described above, were tested with DMSO as a control.
(§3) The growth inhibition assay of representative tetrahydroisoquinolin-2-yl-(quinazolin-4-yl)methanone derivatives against human tumor cell lines was performed using the Sulforhodamine B (“SRB”) method (Skehan et al., J. National Cancer Institute, 82: 1107-1112 (1990)). Briefly, exponentially growing tumor cells were seeded into a 96-well plate at a density of 2-3×10^3 cells/well and treated with tetrahydroisoquinolin-2-yl-(quinazolin-4-yl)methanone compounds the next day. Triplicate wells were used for each treatment. The cells were incubated with the various compounds for 96 hours at 37° C. in a humidified 5% CO2 atmosphere. After 96-hour incubation, cells were fixed with 10% trichloroacetic acid (“TCA”), incubated for 1 hour at 4° C., and washed 3 times with tap water. Subsequently, cells were stained with 0.4% sulforhodamine B in 1% acetic acid for 30 minutes, washed 4 times with 1% acetic acid, and air-dried again After 5 minutes agitation in 10 mM Tris solution, the absorbance of each well was measured at 530 nm using Benchmark Plus Microplate reader (Bio-Rad Laboratories, Hercules, Calif.).
(§4) To translate the OD530 values into the number of live cells in each well, the OD530 values were compared to those on standard OD530-versus-cell number curves generated for each cell line. The percent survival was calculated using the formula: % Survival=live cell number [test]/live cell number [control]×100
(§5) The IC50 values were calculated by non-linear regression analysis.
(§6) The compounds were screened against at […] including PANC-1, MDA-MB-231, HCT116 and Caki-1, at approximately 1 μM concentration. The inhibition of cell growth (IC50, μM) of some tetrahydroisoquinolin-2-yl-(quinazolin-4-yl)methanone compounds are shown in Table 2.

In test [2] the test system is HCT116 (colon). Put plainly: SRB growth inhibition assay, HCT116. It is filed as cell-based, Human. The settings on record: Homo sapiens, HCT-116, 96 hours incubation, read-out: Inhibition of cell growth (IC50, μM) HCT116.
Description: as §1, §2, §3, §4, §5, §6

Test [3] has as its system Caki-1 (kidney). The test is described as follows: SRB growth inhibition assay, Caki-1. Type of test: cell-based, Human. The settings on record: Homo sapiens, CAKI-1, 96 hours incubation, read-out: Inhibition of cell growth (IC50, μM) Caki-1.
Description: as §1, §2, §3, §4, §5, §6

In test [4] the test system is PANC-1 (pancreas). Put plainly: SRB growth inhibition assay, PANC-1. It is filed as cell-based, Human. The settings on record: Homo sapiens, PANC-1, 96 hours incubation, read-out: Inhibition of cell growth (IC50, μM) Panc-1.
Description: as §1, §2, §3, §4, §5, §6

Test [5] relates to MKN-45 (stomach). Put plainly: SRB growth inhibition assay, MKN-45. It is filed as cell-based. To be noted: Homo sapiens, 96 hours incubation, read-out: Inhibition of cell growth (IC50, μM) MKN-45.
Description: as §1, §2, §3, §4, §5

For test [6], the system named is SK-MEL-28 (melanoma). The test is described as follows: SRB growth inhibition assay, SK-MEL-28. It is filed as cell-based. The settings on record: Homo sapiens, 96 hours incubation, read-out: Inhibition of cell growth (IC50, μM) SK-MEL-28.
Description: as §1, §2, §3, §4, §5

The subject of test [7] is HeLa (cervix). Put plainly: SRB growth inhibition assay, HeLa. It is filed as cell-based. To be noted: Homo sapiens, 96 hours incubation, read-out: Inhibition of cell growth (IC50, μM) HeLa.
Description: as §1, §2, §3, §4, §5

The subject of test [8] is OVCAR-3 (ovary). Put plainly: SRB growth inhibition assay, OVCAR-3. To be noted: Homo sapiens, 96 hours incubation, read-out: Inhibition of cell growth (IC50, μM) Ovcar3. Type of test: cell-based.
Description: as §1, §2, §3, §4, §5

Test [9] deals with U251 (brain). Put plainly: SRB growth inhibition assay, U251. The settings on record: Homo sapiens, U-251, 96 hours incubation, read-out: Inhibition of cell growth (IC50, μM) U251. Type of test: cell-based.
Description: as §1, §2, §3, §4, §5

Test [10] relates to HepG2 (liver). Put plainly: SRB growth inhibition assay, HepG2. Type of test: cell-based. To be noted: Homo sapiens, 96 hours incubation, read-out: Inhibition of cell growth (IC50, μM) HepG2.
Description: as §1, §2, §3, §4, §5

The subject of test [11] is A549 (lung). Put plainly: SRB growth inhibition assay, A549. The settings on record: Homo sapiens, 96 hours incubation, read-out: Inhibition of cell growth (IC50, μM) A549. Type of test: cell-based.
Description: as §1, §2, §3, §4, §5

Test [12] has as its system PC3 (prostate). The test is described as follows: SRB growth inhibition assay, PC3. Type of test: cell-based. The settings on record: Homo sapiens, 96 hours incubation, read-out: Inhibition of cell growth (IC50, μM) PC-3.
Description: as §1, §2, §3, §4, §5

The test system of test [13] is MDA-MB-231 human breast adenocarcinoma cells. The test is described as follows: Xenograft study in nude mice. Type of test: in vivo. To be noted: 50 mg/kg intraperitoneal three times per week from day 15; subcutaneous MDA-MB-231 xenograft, female NCr nu/nu mice. How it is done:
Tumor growth inhibition by tetrahydroisoquinolin-2-yl-(quinazolin-4-yl)methanone compounds in an animal model was carried out by performing an […] xenograft study of nude mice was conducted with Compound 1. Suitable human cancer cell lines are those that have been tested previously for inhibition of cancer cell growth. The antitumor efficacy of Compound 1 was evaluated against subcutaneously injected tumor xenografts in nude mice. Tumor volume was measured after treatment with Compound 1.
A suspension of MDA-MB-231 cells (5×10^6 cells in […]) was injected subcutaneously into the right flank of CR female NCr nu/nu mice on day 0. A sufficient number of mice were injected with MDA-MB-231 cell suspension (0.2 ml/mouse) so that tumors in a volume range as narrow as possible were selected for the trial on the day of treatment initiation. Animals with tumors in the proper size range (100˜150 mm^3) were assigned to various treatment groups. Compound 1 was dissolved in the mixture of 15% dimethylacetamide and 30% Solutol® HS15 in water. Solvent alone served as control. […] To quantify tumor growth, three perpendicular diameters of the tumors were measured with calipers every 3-4 days, and the body weight of the mice was monitored for toxicity. The tumor volume was calculated using the formula: tumor volume (mm^3)=(width)×(length)×(height)×π/6.

Turning to `COc1ccc2c(c1O)CCN(C(=O)c1nc(-c3ccc(F)cc3)nc3ccccc13)C2` [Compound 1, 2-[[2-(4-fluorophenyl)quinazolin-4-yl]carbonyl]-5-hydroxy-6-methoxy-1,2,3,4-tetrahydroisoquinoline], the IC50 in test [1] came to 0.06 µM; in test [2] it was 0.069 µM; in test [3], 0.056 µM; in test [4], 0.057 µM; in test [5], 0.058 µM; in test [6], 0.063 µM. The IC50 amounted to 0.063 µM in [7]; 0.06 µM in test [8]; 0.067 µM in test [9]; 0.12 µM in test [10]; 0.14 µM in test [11]; 0.076 µM in test [12]. For the same molecule, the “inhibition of tumor growth (tumor volume)” value in test [13] was “inhibition of tumor growth”.
As to `COc1ccc(-c2nc(C(=O)N3CCc4c(ccc(OC)c4O)C3)c3ccccc3n2)cc1` [Compound 22, 2-[[2-(4-methoxylphenyl)quinazolin-4-yl]carbonyl]-5-hydroxy-6-methoxy-1,2,3,4-tetrahydroisoquinoline], the half-inhibitory concentration (IC50) in [1] turned out to be 0.052 µM; in test [2], 0.086 µM; in test [3], 0.057 µM; in [4], 0.056 µM; in [5], 0.055 µM; in [6] it was 0.072 µM. The 50% inhibitory concentration (IC50) in [7] stood at 0.064 µM; in test [8] it was 0.08 µM; in [9], 0.069 µM; in test [10], 0.19 µM; in test [11], 0.15 µM; in [12], 0.076 µM.
Turning to `COc1ccc2c(c1O)CCN(C(=O)c1nc(-c3cccc(F)c3)nc3ccccc13)C2` [Compound 42, 2-[[2-(3-fluorophenyl)quinazolin-4-yl]carbonyl]-5-hydroxy-6-methoxy-1,2,3,4-tetrahydroisoquinoline], the IC50 in test [1] is 0.12 µM; in test [2], 0.14 µM; in test [3] it was 0.082 µM; in test [4] it was 0.12 µM; in test [5] it was 0.051 µM; in test [6] it was 0.098 µM. In addition, the IC50 in test [7] was 0.12 µM; in [8], 0.15 µM; in test [9], 0.11 µM; in [10] it was 0.2 µM; in test [11], 0.21 µM; in [12] it was 0.15 µM.
On to `COc1ccc2c(c1O)CCN(C(=O)c1nc(-c3ccncn3)nc3ccccc13)C2` [Compound 70, 2-[[2-(4-pyrimidinyl)quinazolin-4-yl]carbonyl]-5-hydroxy-6-methoxy-1,2,3,4-tetrahydroisoquinoline], for which the half-maximal inhibitory concentration (IC50) in test [1] was 0.045 µM; in test [2] it was 0.068 µM; in test [3] it was 0.055 µM; in [4] it was 0.054 µM; in [5], 0.058 µM; in [6], 0.059 µM. The IC50 in [7] amounted to 0.074 µM; in test [8], 0.068 µM; in test [9] it was 0.064 µM; in [10] it was 0.096 µM; in test [11], 0.11 µM; in [12] it was 0.049 µM.
`COc1ccc2c(c1O)CCN(C(=O)c1nc(-c3cccnc3)nc3ccccc13)C2` [Compound 84, 2-[[2-(3-pyridinyl)quinazolin-4-yl]carbonyl]-5-hydroxy-6-methoxy-1,2,3,4-tetrahydroisoquinoline]: the IC50 in test [1] was determined as 0.13 µM; in test [2] it was 0.15 µM; in test [3] it was 0.093 µM; in test [4] it was 0.15 µM; in [5], 0.071 µM; in test [6] it was 0.13 µM. Also, the IC50 in [7] came out at 0.15 µM; in test [8], 0.14 µM; in test [9] it was 0.11 µM; in [10], 0.2 µM; in test [11], 0.24 µM; in test [12], 0.15 µM.
